Data published in publication PMC3772838, “Preclinical Development of a Novel Class of CXCR4 Antagonist Impairing Solid Tumors Growth and Metastases” (PLoS ONE, 2013).
Bridges are numbered along the chain shown (N, C = ends). Where no end group is shown, it is not given here.

Legend:
CXCR4 = experiment: CXCL12-induced calcium mobilization assay (Fluo-3 AM); type: cell-based, human; conditions: CCRF-CEM cells, 10 µM peptide, percent of fluorescence with CXCL12 alone; at least three experiments
Experimental: For the calcium efflux studies a 2 mg/mL stock solution of Fluo-3 acetoxymethylester (Invitrogen, Carlsbad, CA) in anhydrous DMSO was used. […] CCRF–CEM cells were resuspended in cell loading buffer (PBS, 1% FCS, 1 mmol/L MgCl2, and 1 mmol/L CaCl2) at 5×10^5 cells/mL. Fluo-3AM and Pluronic acid were added to each sample to increase Fluo-3AM solubility and improve dye loading into the cells. Baseline calcium efflux was established, then chemokines were added as indicated and chemokine-induced calcium efflux was measured.
(A) The amount of peptides or AMD3100 bound was assessed indirectly by flow cytometry using the PE-labelled anti-CXCR4 antibody (clone 12G5). Results are expressed as the percent antibody bound. (B) The Ca^2+ influx assay was performed using CCRF-CEM cells and Fluo-3 AM calcium indicator. CCRF-CEM cells were incubated 30 minutes at 37°C with Fluo-3 AM and 15 minutes with AMD3100 (10 µM)/peptides (10 µM) and then treated with CXCL12. Results are expressed as the percent of Fluo-3 AM fluorescence in presence of CXCL12 alone. Each peptide was tested in at least three different experiments. Double tailed T-Test was used for statistical analyses. Differences were considered significant at P<0.05 compared to control. Control (CTRL).

[1] = test system: CCRF-CEM human T-Leukemia cells; experiment: CCRF-CEM cell migration; type: cell-based; conditions: Figure S4
Experimental: [The procedure below names another cell line; the source lists this cell line under the same test.] Migration was assayed in 24-well Transwell chambers (Corning Inc., Corning, NY) using inserts with an 8-µm pore membrane. Membranes were precoated with collagen (human collagen type I/III) and fibronectin (20 µg/mL each). PES43 cells were placed in the upper chamber (2.5×10^5 cells/well) in IMDM containing 1% BSA (migration media) in the presence of AMD3100 or peptides; 100 ng/mL CXCL12 was added to the lower chamber. After 16 h incubation, cells on the upper surface of the filter were removed using a cotton wool swab; migration of cells in migration media alone was compared with migration in media containing CXCL12. The cells were counted in ten different fields (original magnification ×40). The migration index was defined as the ratio between migrating cells in the experimental group and migrated cells in the control group. For the wound closure assay, tested cells were allowed to reach confluence in six-well plates containing serum-depleted growth medium and scratched with pipette tips to make wounds. The wound closure was observed microscopically 6 hours post-wounding (OKO Time Lapse).
(TIF) Click here for additional data file.

Substance | CXCL12-induced calcium efflux (Fluo-3 AM fluorescence) (CXCR4) | CCRF-CEM migration [1]
Arg-Ala-[Cys-Arg-His-Trp-Cys] (RACRHWC; disulfide 3-7) [Peptide S, CXCL12-mimetic disulfide-cyclic peptide] | 49.75 % of control | 
Arg-Ala-[Cys-Arg-Phe-Phe-Cys] (RACRFFC; disulfide 3-7) [Peptide R, CXCL12-mimetic disulfide-cyclic peptide] | 51.25 % of control | inhibited CCRF-CEM human T-Leukemia cells migration in a dose-dependent manner
[Cys-Trp-His-Arg-Cys] (CWHRC; disulfide 1-5) [Peptide I, v-MIP-II mimetic disulfide-cyclic peptide] | Minimal effect | 
